Results: patent publication EP0991637B1, “BENZO(5,6)CYCLOHEPTA(1,2-B)PYRIDINE DERIVATIVES AS FARNESYL PROTEIN TRANSFERASE INHIBITORS” (SCHERING CORPORATION, priority 1997, dated 1998)

The compounds below were run on COS Cell (assay: COS Cell IC50 (Cell-Based Assay), procedure of WO 95/10516). Conditions: range stated for the whole group of compounds.
Procedure: FPT IC50 (inhibition of farnesyl protein transferase, in vitro enzyme assay) and COS Cell IC50 (Cell-Based Assay) were determined following the assay procedures described in WO 95/10516, published April 20, 1995. GGPT IC50 (inhibition of geranylgeranyl protein transferase, in vitro enzyme assay), Cell Mat Assay, and anti-tumor activity (in vivo anti-tumor studies) could be determined by the assay procedures described in WO 95/10516. The disclosure of WO 95/10516 is incorporated herein by reference thereto.

| Compound | IC50 [µM] |
| --- | --- |
| NC(=O)[C@H]1C[C@@H]1C(=O)N1CCC([C@H]2c3ncc(Br)cc3CCc3cc(Cl)cc(Br)c32)CC1 [Compound 55.0, Trans-2(S)-[[4-(3,10-dibromo-8-chloro-6,11-dihydro-5H-benzo[5,6]cyclohepta[1,2-b]pyridin-11(R)-yl)-1-piperidinyl]carbonyl]-(S)-cyclopropanecarboxamide] | 0.01 to 0.5 |
| O=C(O)Cc1ccc(CC(=O)N2CCC([C@H]3c4ncc(Br)cc4CCc4cc(Cl)cc(Br)c43)CC2)cc1 [Example 3] | 0.01 to 0.5 |
| O=C(O)Cc1cccc(CC(=O)N2CCC([C@H]3c4ncc(Br)cc4CCc4cc(Cl)cc(Br)c43)CC2)c1 [Example 4] | 0.01 to 0.5 |
| CCOC(=O)C1CCC(CC(=O)N2CCC([C@H]3c4ncc(Br)cc4CCc4cc(Cl)cc(Br)c43)CC2)CC1 (stereo partly shown) [Example 8] | 0.01 to 0.5 |
| O=C(O)C1CCC(CC(=O)N2CCC([C@H]3c4ncc(Br)cc4CCc4cc(Cl)cc(Br)c43)CC2)CC1 (stereo partly shown) [Example 12] | 0.01 to 0.5 |
| O=C(O)CC1CCC(CC(=O)N2CCC([C@H]3c4ncc(Br)cc4CCc4cc(Cl)cc(Br)c43)CC2)CC1 (stereo partly shown) [Example 13] | 0.01 to 0.5 |
| O=C(O)C=C1CCC(=CC(=O)N2CCC([C@H]3c4ncc(Br)cc4CCc4cc(Cl)cc(Br)c43)CC2)CC1 [Example 14] | 0.01 to 0.5 |
| NC(=O)Cc1ccc(CC(=O)N2CCC([C@H]3c4ncc(Br)cc4CCc4cc(Cl)cc(Br)c43)CC2)cc1 [Example 15] | 0.01 to 0.5 |
| NC(=O)Cc1cccc(CC(=O)N2CCC([C@H]3c4ncc(Br)cc4CCc4cc(Cl)cc(Br)c43)CC2)c1 [Example 16] | 0.01 to 0.5 |
| COC(=O)CNC(=O)Cc1cccc(CC(=O)N2CCC([C@H]3c4ncc(Br)cc4CCc4cc(Cl)cc(Br)c43)CC2)c1 [Example 17] | 0.01 to 0.5 |
| COC(=O)CNC(=O)Cc1ccc(CC(=O)N2CCC([C@H]3c4ncc(Br)cc4CCc4cc(Cl)cc(Br)c43)CC2)cc1 [Example 18] | 0.01 to 0.5 |
| CONC(=O)Cc1ccc(CC(=O)N2CCC([C@H]3c4ncc(Br)cc4CCc4cc(Cl)cc(Br)c43)CC2)cc1 [Example 19] | 0.01 to 0.5 |
| NC(=O)CC1CCC(CC(=O)N2CCC([C@H]3c4ncc(Br)cc4CCc4cc(Cl)cc(Br)c43)CC2)CC1 (stereo partly shown) [Example 22] | 0.01 to 0.5 |
| NC(=O)C1CCC(CC(=O)N2CCC([C@H]3c4ncc(Br)cc4CCc4cc(Cl)cc(Br)c43)CC2)CC1 (stereo partly shown) [Example 23] | 0.01 to 0.5 |
| COC(=O)Cc1ccc(CC(=O)N2CCC([C@H]3c4ncc(Br)cc4CCc4cc(Cl)cc(Br)c43)CC2)cc1 [Example 34] | 0.01 to 0.5 |
| O=C(O)C[C@H]1CC[C@@H](C(=O)N2CCC([C@H]3c4ncc(Br)cc4CCc4cc(Cl)cc(Br)c43)CC2)CC1 [Example 35] | 0.01 to 0.5 |
| O=C(O)C[C@H]1CC[C@H](C(=O)N2CCC([C@H]3c4ncc(Br)cc4CCc4cc(Cl)cc(Br)c43)CC2)CC1 [Example 36] | 0.01 to 0.5 |

These compounds were tested on Human tumor cells (assay: Soft Agar Assay (anchorage-independent growth, colony outgrowth, MTT staining)). Conditions: 0.3% agarose over 0.6% agarose, 10-16 days at 37°C under 5% CO2.
Type: cell-based
Procedure: Anchorage-independent growth is a characteristic of tumorigenic cell lines. Human tumor cells are suspended in growth medium containing 0.3% agarose and an indicated concentration of a farnesyl transferase inhibitor. The solution is overlayed onto growth medium solidified with 0.6% agarose containing the same concentration of farnesyl transferase inhibitor as the top layer. After the top layer is solidified, plates are incubated for 10-16 days at 37°C under 5% CO2 to allow colony outgrowth. After incubation, the colonies are stained by overlaying the agar with a solution of MTT (3-[4,5-dimethyl-thiazol-2-yl]-2,5-diphenyltetrazolium bromide, Thiazolyl blue) (1 mg/mL in PBS). Colonies can be counted and the IC50's can be determined.

| Compound | IC50 [µM] |
| --- | --- |
| CCOC(=O)C1CCC(CC(=O)N2CCC([C@H]3c4ncc(Br)cc4CCc4cc(Cl)cc(Br)c43)CC2)CC1 (stereo partly shown) [Example 8] | > 0.5 |
| O=C(O)C=C1CCC(=CC(=O)N2CCC([C@H]3c4ncc(Br)cc4CCc4cc(Cl)cc(Br)c43)CC2)CC1 [Example 14] | > 0.5 |
